Assay results published in patent publication US8192962B2, “Processes for detecting toxic substances” (Daikin Industries, Ltd., priority 2001, dated 2012).

Tested on: Genes belonging to other category
Test: DNA chip mRNA expression in yeast, genes belonging to other category (Table 9)
Assay type: cell-based, Saccharomyces cerevisiae S288C
Outline: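 Chemical exposure: 2 h, log-phase S. cerevisiae S288C, YPD, 25° C., dose set to inhibit growth without death. Profiling: mRNA labeled by reverse transcription with Cy3- or Cy5-dUTP, hybridized to whole-genome array. Output: fluorescence ratio against untreated culture.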

Measured: The level of expressed mRNA in the presence of chemical substance/The level of expressed mRNA in the absence of chemical substance

manganese ethylenebis(dithiocarbamate) [(8)]
2.2: yeast gene YLR327C
0.9: yeast gene YKL013C | yeast gene YLR120C | yeast gene YLR178C | yeast gene YMR104C
1.0: yeast gene YLR429W | yeast gene YMR004W | yeast gene YMR094W | yeast gene YOL013C | yeast gene YOL164W | yeast gene YOR117W | yeast gene YOR383C | yeast gene YPR103W
1.9: yeast gene YOR288C
1.4: yeast gene YKL193C | yeast gene YLR362W | yeast gene YNR069C | yeast gene YOR036W | yeast gene YOR185C
2.6: yeast gene YOR261C
0.8: yeast gene YKL039W | yeast gene YMR275C | yeast gene YMR276W | yeast gene YNL007C | yeast gene YNL093W | yeast gene YOR355W | yeast gene YPL089C | yeast gene YPL154C
1.3: yeast gene YLR250W | yeast gene YOR124C | yeast gene YOR198C
2.1: yeast gene YNL333W
1.2: yeast gene YKL008C | yeast gene YMR314W | yeast gene YOR132W | yeast gene YOR157C
1.5: yeast gene YKL165C
0.5: yeast gene YKL096W
1.1: yeast gene YLR136C | yeast gene YMR219W | yeast gene YNL006W | yeast gene YNR010W | yeast gene YOR259C | yeast gene YPL109C | yeast gene YPL149W
0.7: yeast gene YLR356W | yeast gene YLR391W | yeast gene YOR181W
1.6: yeast gene YMR226C | yeast gene YPR108W
